From patent US20160113931A1, “Method of treating and/or preventing neurodegenerative diseases” (University of Macau, priority 2014, published 2016)
“Also recorded” adds a separate entry of the source.

Columns and labels:
caspase 3 = assay: Caspase 3 activity assay in SH-SY5Y cells; type: cell-based, human
Experimental: After pre-treatment with 30 μM BHDPC or 0.1% DMSO (vehicle control) for 2 h, SH-SY5Y cells were incubated with or without 2 mM MPP^+ for another 36 h. (FIG. 6A) Δψm was determined by the JC-1 assay.
After treatment, the activity of caspase 3 was measured using the commercially available EnzChek Caspase-3 Assay Kit (Invitrogen, USA) according to the manufacturer's protocol. Briefly, SH-SY5Y cells were lysed in lysis buffer and centrifuged at 12,500×g for 5 min. 15 μL of cell lysate was incubated with 50 μL of 2× substrate working solution at room temperature for 30 min in 96-well plates. The fluorescence intensity was then determined by a SpectraMax M5 microplate reader at an excitation wavelength of 490 nm and emission at 520 nm. The fluorescence intensity of each sample was normalized to the protein concentration of sample. All values of % caspase 3 activities were normalized to the control group.
Caspase 3 activation plays a key role in the execution-phase of the apoptosis.

[1] = OPC proliferation (MTT assay); type: cell-based, rat; settings: rat, primary oligodendroglial progenitor cells (OPCs), 100 μM, read-out: OPC viability compared with the control group (cytotoxicity)
Experimental: (§1) FIGS. 10A, 10B and 10C show the effects of BHDPC in oligodendroglial progenitor cells (OPCs) proliferation. OPCs were incubated with the drugs at indicated concentrations in proliferation medium for 2 days. (FIG. 10A) The cell viability was measured by MTT assay.
(§2) The percentage of surviving cells was estimated by determining the activity of mitochondrial dehydrogenases with 3(4,5-dimethylthiazol-2-yl)-2,5-diphenyltetrazolium bromide (MTT) assay. After drug treatment, cells were incubated at 37° C. for 4 h in 0.5 mg/mL MTT solution. The medium was then removed, and 100 μL of DMSO was added to each well to dissolve the violet formazan crystals. The absorbance of the samples was measured at a wavelength of 570 nm with 655 nm as a reference wavelength. All values were normalized to the control groups.
(§3) Purified OPC cultures were prepared as described. In brief, primary rat mixed glial cell cultures were isolated from whole brains of postnatal day (P) 2 rats, dissociated into single cells, and cultured into poly-D-lysine (PDL) coated T75 tissue culture flasks. Plating medium consisted of Dulbecco's modified Eagle's medium (DMEM, Invitrogen, Carlsbad, Calif.) supplemented with 10% fetal bovine serum (FBS; Invitrogen, Carlsbad, Calif.), […]. Tissue cultures were maintained at 37° C. in a humidified 5% CO2 incubator, and medium was exchanged every 3 days. Once confluent (after 10-15 days), microglia were separated by mechanical shaking of flasks on a rotary shaker for […] at 250 rpm and removed. After addition of fresh medium, the remaining cells were allowed to recover overnight before repeating the mechanical shaking for an additional 16 h at 200 rpm to isolate OPCs. To ensure purity of OPC cultures, the isolated cells were transferred to a tissue culture dish, from which the loosely attached OPCs were detached by gentle shaking after 60 min, leaving behind attached microglia and astrocytes. OPCs were plated onto PDL coated 96 well plates using an automated dispenser and allowed to adhere to the plates over the next 1-2 days.
(§4) To test the effect of BHDPC on primary OPC culture, OPCs were treated with BHDPC for 48 h and the cell viability was determined using MTT assay. […] The proliferation activity of BHDPC was also confirmed by the EdU incorporative assay.

[2] = system: oligodendroglial progenitor cells (OPCs); assay: OPC proliferation (MTT assay); type: cell-based, rat; settings: Rattus norvegicus, 48 h, read-out: OPC viability compared with the control group
Experimental: as §1, §2, §3, §4

primary cortical neurons = assay: α-tubulin and MAP2 expression in primary cortical neurons; type: cell-based, rat; settings: 10 and 30 μM, 14 days
Experimental: Primary culture of cortical neurons was prepared from embryonic day 18±0.5 Sprague-Dawley rats. One day after seeding, primary cortical neurons were treated with 10 and 30 μM BHDPC for 14 days. Fourteen days following BHDPC treatment, primary cortical neurons cultured on glass coverslips (Thermo Scientific) were fixed with 4% paraformaldehyde for 15 min. Following fixation, neurons were permeabilized with 0.1% Triton X-100 in Tris-buffered saline for 7 min, and blocked with 4% bovine serum albumin and 2% goat serum for 1 h. α-tubulin and MAP2 were incubated at 1:400 dilution for 1 h at room temperature and overnight at 4° C. respectively. Following primary antibody incubation, neurons were incubated with Alexa Flour 488 or 568 secondary antibodies (anti-rabbit or anti-mouse) at 1:400 dilution for 1 h at room temperature. The coverslips were then mounted on microscopic slides (Thermo Scientific) using ProLong® Gold Antifade Mountant (Molecular Probes). Neurons were imaged using the LSM 780 laser scanning microscope (Carl Zeiss). Fluorescence intensity was measured using Image J.

zebrafish = assay: MPTP-induced deficit of locomotion behavior in zebrafish larvae; type: in vivo, Danio rerio
Experimental: Three dpf zebrafish embryos were co-incubated with 10 μM MPTP and BHDPC at the indicated concentrations for 96 hours, and zebrafish larval co-treated with MPTP and 150 μM L-dopa was used as positive control. After treatment, zebrafish were collected to perform locomotion behavior test using Viewpoint Zebrabox system and total distances travelled in 10 min were calculated.
The AB strain of wild type zebrafish (Danio rerio) was maintained as described in the Zebrafish Handbook. Zebrafish were staged by days post fertilization […]. For breeding, groups of male and female (3:2) adult zebrafish were placed in 10-L plastic aquarium equipped with spawning nets in the evening. In the following morning, eggs were collected from the breeding group tanks. Normally developed fertilized eggs were selected under a stereomicroscope for further studies. The MPTP manipulation was performed with appropriate safety precautions and all MPTP-containing water was bleached.
In addition, MPTP markedly altered the swimming behavior of the zebrafish as a consequence of DA neuronal injury. […] BHDPC ameliorated MPTP-induced deficit of swimming behavior. At the same condition, MPTP-induced deficit of swimming behavior were rescued by positive controls, levodopa (L-dopa) (FIG. 16).

ROCK1 = ROCK1 (Homo sapiens, UniProt Q13464); assay: Kinase activity assay ROCK1; type: biochemical
Source text: ROCK has two isoforms (ROCK1 and ROCK2) sharing the same downstream proteins. Bioassay and molecular docking are used to compare the characteristics of BHDPC on ROCK. […] Through molecular docking and molecular dynamics simulation, the interaction between the inhibitor and ROCK1 was shown in FIG. 17.

ROCK1, sequence (Q13464 whole entry, species assumed, canonical isoform): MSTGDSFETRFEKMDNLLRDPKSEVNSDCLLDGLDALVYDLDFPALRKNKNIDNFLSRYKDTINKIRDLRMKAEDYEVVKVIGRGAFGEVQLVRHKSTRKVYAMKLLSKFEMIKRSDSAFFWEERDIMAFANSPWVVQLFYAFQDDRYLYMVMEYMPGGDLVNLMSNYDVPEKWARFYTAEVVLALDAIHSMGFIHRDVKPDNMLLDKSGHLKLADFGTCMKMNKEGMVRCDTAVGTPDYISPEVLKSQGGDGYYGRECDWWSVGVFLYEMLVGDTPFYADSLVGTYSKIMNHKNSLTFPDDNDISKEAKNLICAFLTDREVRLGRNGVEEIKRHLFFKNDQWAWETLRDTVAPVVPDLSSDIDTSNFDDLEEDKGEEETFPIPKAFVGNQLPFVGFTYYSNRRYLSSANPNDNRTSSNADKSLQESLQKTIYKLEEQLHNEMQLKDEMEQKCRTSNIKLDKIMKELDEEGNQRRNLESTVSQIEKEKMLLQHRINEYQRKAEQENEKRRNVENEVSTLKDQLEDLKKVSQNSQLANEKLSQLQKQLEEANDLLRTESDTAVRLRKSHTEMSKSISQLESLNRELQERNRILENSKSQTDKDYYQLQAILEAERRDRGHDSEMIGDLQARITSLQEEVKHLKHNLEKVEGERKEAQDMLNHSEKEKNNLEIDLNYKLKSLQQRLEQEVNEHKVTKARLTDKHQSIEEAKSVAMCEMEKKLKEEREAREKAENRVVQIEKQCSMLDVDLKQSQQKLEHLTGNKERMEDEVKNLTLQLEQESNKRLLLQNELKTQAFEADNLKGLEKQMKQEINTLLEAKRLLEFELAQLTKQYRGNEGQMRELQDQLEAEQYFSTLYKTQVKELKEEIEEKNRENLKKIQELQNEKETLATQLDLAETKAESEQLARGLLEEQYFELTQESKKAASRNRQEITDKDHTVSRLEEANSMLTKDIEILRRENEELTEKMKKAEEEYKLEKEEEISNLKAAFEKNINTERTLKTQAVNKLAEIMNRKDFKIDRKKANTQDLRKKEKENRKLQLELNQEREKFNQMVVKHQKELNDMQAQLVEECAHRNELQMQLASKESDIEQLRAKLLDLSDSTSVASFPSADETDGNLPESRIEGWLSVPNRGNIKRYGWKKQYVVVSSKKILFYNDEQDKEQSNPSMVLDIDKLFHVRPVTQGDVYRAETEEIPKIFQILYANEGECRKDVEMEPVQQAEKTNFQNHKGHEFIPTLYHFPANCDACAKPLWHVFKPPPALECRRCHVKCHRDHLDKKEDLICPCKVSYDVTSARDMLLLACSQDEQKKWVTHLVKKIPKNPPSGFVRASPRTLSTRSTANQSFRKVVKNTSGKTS

In the case of `COc1cc(C2C(C(=O)OCc3ccccc3)=C(C)Nc3nnnn32)ccc1O` (stereo not shown) [BHDPC, benzyl 7-(4-hydroxy-3-methoxyphenyl)-5-methyl-4,7-dihydrotetrazolo[1,5-a]pyrimidine-6-carboxylate], the “MPP+-induced caspase 3 activation” value (caspase 3; 30 μM pre-treatment, 2 mM MPP+ 36 h) is reported as “significantly reduced; also recorded: attenuated”, the “caspase 3 activity” value (caspase 3; BHDPC alone, without MPP+) is reported as “did not affect caspase 3 activity” and the viability at 48 h, 100 µM [1] is reported as 65%. It also gave a viability at 1 µM ([2]; 1 μM) of 100%, a viability at 3 µM ([2]; 3 μM) of 106% and a viability at 10 µM ([2]; 10 μM) of 127%. For the same compound, the viability at 30 µM ([2]; 30 μM) was 152%, the “level of microtubule-associated protein (MAP2)” value (primary cortical neurons) was “increase levels” and the “level of α-tubulin” value (primary cortical neurons) was “increase levels”. The “swimming behaviour of normal zebrafish larvae” value (zebrafish; BHDPC treatment alone) was “notably altered”, the “MPTP-induced deficit of swimming behavior (total distance travelled in 10 min)” value (zebrafish; co-incubated with 10 μM MPTP, 96 hours, 3 dpf) was “ameliorated; also recorded: attenuated” and the “affinity ROCK1 versus ROCK2” value (ROCK1; from IC50 values) was “better affinity for ROCK1 than ROCK2”. It also gave an IC50 (ROCK1; kinase activity assay) of 13.7 µM.
